Common to all, as to assay type: functional, cell-based
What all share (details): for Activity: time 24-48 hrs

Assay [1] concerns BXPC-3. Nature of the assay: Antiproliferative activity against human BXPC-3 cells after 24 to 48 hrs by Cell Titer-Glo luminiscent cell viability assay. Background: In ATP-based viability assays light output follows the ATP content of the culture.
For assay [2], the system named is PANC-1. Nature of the assay: Antiproliferative activity against human PANC-1 cells after 24 to 48 hrs by Cell Titer-Glo luminiscent cell viability assay.
For assay [3], the system named is MIA PaCa-2. Put plainly: Antiproliferative activity against human MIA PaCa-2 cells after 24 to 48 hrs by Cell Titer-Glo luminiscent cell viability assay.
In assay [4] the test system is ASPC1. Put plainly: Antiproliferative activity against human ASPC1 cells after 24 to 48 hrs by Cell Titer-Glo luminiscent cell viability assay.

Molecules are shown by their SMILES. Calls of active or inactive are those of the source. The rule behind the calls is not given here.

By IC50 is commonly meant the concentration that inhibits the measured activity by half.

Consider `Cc1nc2n(c(=O)c1CCN1CCC(c3noc4cc(F)ccc34)CC1)CCCC2O` (stereo unspecified), for which the outcome in assay [1], in assay [2], in assay [3] and in assay [4] was Active.

In the case of `COc1ccc(-c2ccc3cc(C(=O)O)ccc3c2)cc1C12CC3CC(CC(C3)C1)C2`, the outcome in assay [1], in assay [2], in assay [3] and in assay [4] was Active.

As for `CC1(C)O[C@H]2C[C@H]3[C@@H]4CCC5=CC(=O)C=C[C@]5(C)[C@H]4[C@@H](O)C[C@]3(C)[C@]2(C(=O)CO)O1`, the outcome in assay [1], in assay [2], in assay [3] and in assay [4] was Active.

Consider `CN1CCC(=C2c3ccccc3CC(=O)c3sccc32)CC1`, for which the result in assay [1], in assay [2], in assay [3] and in assay [4] was Active.

Take `COc1ccc(CCN2CCC(Nc3nc4ccccc4n3Cc3ccc(F)cc3)CC2)cc1` [ASTEMIZOLE]: the IC50 in assay [1] was 3.7 µM; in assay [2], 1.8 µM; in assay [3], 1.3 µM; in assay [4] it was 5.3 µM.

Take `O=C(O)c1ccc(NC(=O)[C@H](Cc2ccc(O)cc2)NC(=O)c2ccccc2)cc1`: the result in assay [1], in assay [2], in assay [3] and in assay [4] was Active.

Turning to `Cc1nc2n(c(=O)c1CCN1CCC(c3noc4cc(F)ccc34)CC1)CCCC2` [RISPERIDONE], the concentration for half-maximal inhibition (IC50) worked out at 7.5 µM in assay [1], 27.6 µM in assay [2], 10 µM in assay [3] and 35.3 µM in assay [4].

For `C[C@]12CC[C@@H]3c4ccc(OS(=O)(=O)O)cc4CC[C@H]3[C@@H]1CCC2=O`, the result in assay [1], in assay [2], in assay [3] and in assay [4] was Active.

Consider `CCC1=C(C)CN(C(=O)NCCc2ccc(S(=O)(=O)NC(=O)N[C@H]3CC[C@H](C)CC3)cc2)C1=O`, for which the outcome in assay [1], in assay [2], in assay [3] and in assay [4] was Active.
